Assay results: paper PMC2725291, “Genetic and Molecular Basis of Individual Differences in Human Umami Taste Perception” (PLoS ONE, 2009)

Molecular target: T1, TAS1R1-372A and TAS1R3-757R (Homo sapiens, UniProt Q7RTX0+Q7RTX1, C757R)
T1 construct: expressed in transfected cells; host or cells: HEK293
T1 sequence (Q7RTX1 21-841): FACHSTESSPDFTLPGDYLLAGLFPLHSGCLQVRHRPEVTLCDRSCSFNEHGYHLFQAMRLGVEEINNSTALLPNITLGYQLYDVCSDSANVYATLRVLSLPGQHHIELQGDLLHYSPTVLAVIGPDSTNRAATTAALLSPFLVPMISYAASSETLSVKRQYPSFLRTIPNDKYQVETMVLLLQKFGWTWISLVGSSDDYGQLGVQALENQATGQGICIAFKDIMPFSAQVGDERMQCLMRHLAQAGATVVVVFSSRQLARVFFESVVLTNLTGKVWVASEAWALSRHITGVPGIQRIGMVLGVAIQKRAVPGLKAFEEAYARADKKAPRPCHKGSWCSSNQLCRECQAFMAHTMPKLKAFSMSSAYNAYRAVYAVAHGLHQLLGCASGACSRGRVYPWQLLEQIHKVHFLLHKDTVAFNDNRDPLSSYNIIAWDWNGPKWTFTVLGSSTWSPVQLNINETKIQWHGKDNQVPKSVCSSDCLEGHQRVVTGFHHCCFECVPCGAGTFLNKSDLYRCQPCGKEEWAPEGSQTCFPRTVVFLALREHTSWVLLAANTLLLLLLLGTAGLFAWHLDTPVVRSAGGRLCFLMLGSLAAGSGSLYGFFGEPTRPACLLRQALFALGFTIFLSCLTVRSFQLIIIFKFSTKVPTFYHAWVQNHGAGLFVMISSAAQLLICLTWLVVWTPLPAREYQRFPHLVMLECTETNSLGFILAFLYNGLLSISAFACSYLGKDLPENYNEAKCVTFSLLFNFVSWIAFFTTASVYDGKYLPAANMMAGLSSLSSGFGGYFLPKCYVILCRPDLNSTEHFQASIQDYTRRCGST
T1 sequence (Q7RTX0 21-852 C757R): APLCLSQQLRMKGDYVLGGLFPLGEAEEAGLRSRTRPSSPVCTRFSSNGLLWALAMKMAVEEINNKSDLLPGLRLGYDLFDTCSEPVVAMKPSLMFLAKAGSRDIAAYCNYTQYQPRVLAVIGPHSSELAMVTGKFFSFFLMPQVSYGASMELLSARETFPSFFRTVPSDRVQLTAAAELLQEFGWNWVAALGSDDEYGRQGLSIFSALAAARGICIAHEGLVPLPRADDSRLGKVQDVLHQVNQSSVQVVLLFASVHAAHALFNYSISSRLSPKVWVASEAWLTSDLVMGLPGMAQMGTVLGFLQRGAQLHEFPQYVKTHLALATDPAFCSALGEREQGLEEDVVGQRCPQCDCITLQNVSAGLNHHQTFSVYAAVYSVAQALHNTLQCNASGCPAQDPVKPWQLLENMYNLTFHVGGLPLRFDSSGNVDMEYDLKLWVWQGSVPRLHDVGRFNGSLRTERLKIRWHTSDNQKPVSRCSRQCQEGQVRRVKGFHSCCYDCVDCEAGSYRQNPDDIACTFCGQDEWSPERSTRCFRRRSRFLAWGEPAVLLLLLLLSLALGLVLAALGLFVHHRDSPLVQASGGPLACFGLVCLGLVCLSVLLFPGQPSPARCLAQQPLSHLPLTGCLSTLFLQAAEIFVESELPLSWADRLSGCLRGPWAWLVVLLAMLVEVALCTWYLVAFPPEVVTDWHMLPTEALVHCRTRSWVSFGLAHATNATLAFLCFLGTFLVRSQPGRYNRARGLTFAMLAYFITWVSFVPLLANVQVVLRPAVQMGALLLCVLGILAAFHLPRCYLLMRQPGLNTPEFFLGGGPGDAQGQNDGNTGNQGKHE
Assay: Ca2+ imaging (bath perfusion) in HEK cells transfected with TAS1R1-372A, TAS1R3-757R and Gα16-i3
Assay type: cell-based
Details: 5∼100 mM
Method: HEK293 cells were cultured at 37°C under a humidified atmosphere containing 5% CO2 in Dulbecco's modified Eagle's medium supplemented with 10% fetal bovine serum. To obtain reproducible Ca^2+ responses, cells were split every 2 days before cells become confluent. Cells were discarded after 2 months of passages and new cells were prepared from frozen-stock. For calcium imaging experiments, cells were seeded onto a 35 mm recording chamber or poly-D-lysine coated 96-well black-wall, clear-bottom recording plates. After 24 hrs at 37°C, confluent cells (60∼70%) were washed in OptiMEM medium supplemented with GlutaMAX-I (invitrogen) and plasmid DNAs were transiently cotransfected into HEK293 cells using Lipofectamine2000 regent (invitrogen) (2.0 µl per 1.0 µg DNA). TAS1Rs (or their mutants) and Gαl6-i3 were transfected using 1.5 and 1.0 µg of plasmid for 35 mm recording chambers, 0.09 and 0.06 µg of plasmid per well for 96-well plates, respectively. […] Immuno staining and Ca^2+ imaging assays were performed 36∼40 hrs after transfection.
Two Ca^2+ imaging systems were used. A bath perfusion system was used for kinetics of activation. Transfected cells in 35 mm recording chambers were washed in Hank's balanced salt solution (HBSS) containing 10 mM HEPES, pH 7.4, and loaded with 3.0 µM Fluo-4 acetoxymethyl ester (invitrogen) for 1.0 hr at 37°C. The dye-loaded cells were subjected to Ca^2+ imaging. Taste solutions diluted in HBSS were applied sequentially to the cells for 30 s with a peristaltic pump at a flow rate of 1.5 ml/min, and fluorescence images were obtained using a S Fluor ×20/0.75 objective lens (Nikon) via a cooled-CCD camera (C6790, Hamamatsu Photonics) fitted to a TE300 microscope (Nikon). Acquisition and analysis of these fluorescence images used AquaCosmos software (v. 1.3, Hamamatsu Photonics). A 3 min interval was left between each tastant application to ensure that the cells were not desensitized as a result of the previous application of tastants. Responses were measured from 30 individual responding cells. […] Isoproterenol (ISO, 10 µM) was used as positive control, which stimulates endogenous β-adrenergic receptors, providing that the Gα16-dependent signal transduction cascade was functional.

With N[C@@H](CCC(=O)O)C(=O)[O-].[Na+] [MSG, monosodium glutamate] the “activation (Ca2+ mobilization) of transfected cells” value was “elicited transient intracellular calcium increases”.
